Measured values published in patent US20160287565A1, “COMBINATION THERAPY FOR TREATING DISORDERS ASSOCIATED WITH EXCESS CORTISOL PRODUCTION” (Millendo Therapeutics, Inc., priority 2015, published 2016).

Experiments:
Dogs = experiment: ATR-101 in dogs, serum steroid and steroid precursor levels by LC-MS/MS pre- and post-ACTH stimulation; type: in vivo, dog; settings: 3 mg/kg daily 7 days then 30 mg/kg 7 days, oral gavage
Experimental: Changes in steroid and steroid intermediate levels are shown as % reduction as compared to maximum level as measured on Day 0. *Day 1 data used for maximum steroid level. **Day 3 data used for maximum steroid level.
Dogs were administered daily doses of 3 mg/kg of ATR-101 for 7 days by oral gavage, and then 30 mg/kg for 7 days by oral gavage. Blood was collected on day 14 to measure basal steroid and steroid precursor serum levels (pre-ACTH stimulation) and steroid/steroid precursor levels post-ACTH stimulation by LC-MS/MS. For ACTH stimulation, 5 μg/kg (not to exceed 250 μg) of CORTROSYN™ (also known as cosyntropin or synthetic ACTH) was administered via bolus i.v. administration, and blood samples were collected 1 hour post-CORTROSYN™ administration. Changes in steroid and steroid precursor levels are shown as % reduction as compared to maximum level as measured on Day 0, except as noted (see, FIG. 2; *Day 1 data used for maximum steroid level; **Day 3 data used for maximum steroid level).

[1] = tested on: human adult patients with Cushing's disease; settings: cited from earlier work
[2] = tested on: human, adult patients with Cushing's disease; settings: cited from earlier work

Row | SMILES | synthesis of steroids and steroid precursors produced in the adrenal cortex (Dogs; day 14, FIG. 4) | 11-deoxycorticosterone level (Dogs; day 14 serum) | 11-deoxycortisol level (Dogs; day 14 serum) | testosterone level (Dogs; day 14 serum) | secretion of ACTH ([1]; during LCI699 treatment (day 70) vs day 1, FIG. 2A) | testosterone levels (in females) ([1]; during LCI699 treatment (day 70), 8 females, FIG. 2C) | 11-deoxycortisol level ([1]; during LCI699 treatment (day 70), FIG. 2B) | 11-deoxycorticosterone levels ([1]; during LCI699 treatment (day 70), FIG. 2D) | serum cortisol ([1]; during LCI699 treatment (day 70), up to 100 mg/day b.i.d., n=12) | females developing acne ([2]; 22-week treatment course) | females developing hirsutism ([2]; 22-week treatment course) | females with elevated testosterone who developed adverse symptoms of androgen excess ([2]; 22-week treatment course) | women with above normal testosterone levels during the treatment course ([2]; of the 12 women who completed 22 weeks, normal range 2-45 ng/dL, 4-60 mg/day)
1 | CC(C)c1cccc(C(C)C)c1NC(=O)NCC1(c2ccc(N(C)C)cc2)CCCC1 [ATR-101, N-(2,6-bis(1-methylethyl)-phenyl)-N′-((1-(4-(dimethylamino)phenyl)cyclopentyl)-methyl)urea] | broad inhibitory effects | decreased | decreased | decreased | – | – | – | – | – | – | – | – | –
2 | N#Cc1ccc([C@H]2CCc3cncn32)c(F)c1 [osilodrostat] | – | – | – | – | increased secretion of ACTH | increased | build-up | increased | decrease in serum cortisol | three | two | Four | 9
